Test results reported in publication PMC7221760, “Structural and Functional Characterization of NadR from Lactococcus lactis” (Molecules, 2020).
Blank lines part the entries; values can stand above or below the molecule they belong to.

Experiments:
NadRLl [1] = biological target: T1, NadRLl (Lactococcus lactis, UniProt Q9CE60); assay: LDH-coupled NADH absorbance at […] nm (NMN to NAD); format: biochemical; settings: substrate inhibition; 10 mM Mg-ATP; 100 mM Tris/HCl pH 7.5; 25 °C
T1 construct: gene nadR; NMNAT domain residues 8-177, RNK domain residues 178-379
T1 sequence (Q9CE60 1-379): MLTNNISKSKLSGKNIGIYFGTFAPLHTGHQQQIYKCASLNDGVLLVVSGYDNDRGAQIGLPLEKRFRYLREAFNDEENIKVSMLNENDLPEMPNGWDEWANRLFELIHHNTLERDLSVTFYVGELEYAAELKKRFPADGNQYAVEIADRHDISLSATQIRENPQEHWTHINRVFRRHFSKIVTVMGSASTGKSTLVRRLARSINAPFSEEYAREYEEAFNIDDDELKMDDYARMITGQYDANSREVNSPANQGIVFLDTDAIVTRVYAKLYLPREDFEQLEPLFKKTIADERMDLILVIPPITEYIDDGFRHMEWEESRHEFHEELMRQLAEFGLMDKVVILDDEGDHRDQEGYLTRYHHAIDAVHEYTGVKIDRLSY

NadRLl [2] = biological target: T1, NadRLl; assay: X-ray crystal structure, […] Å; format: binding; settings: 5 mM NMN, pH 6.5; site between the two domains, not the active sites
NadRLl [3] = biological target: T1, NadRLl; assay: isothermal titration calorimetry; format: binding; settings: read-out: Dissociation Constant-KD
Source text: isothermal titration calorimetry on NadRLl

NadRLl [4] = biological target: T1, NadRLl; assay: X-ray crystal structure, […] Å; format: binding; settings: co-crystallised with 5 mM NAD and 5 mM Mg-AMP-PNP, not the active sites
NadRLl [5] = biological target: T1, NadRLl; assay: X-ray crystal structure, […] Å; format: binding; settings: 5 mM NR, pH 6.5; site between the two domains, not the active sites
NadRLl [6] = biological target: T1, NadRLl; assay: LDH-coupled NADH absorbance at […] nm (NR to NAD); format: biochemical; settings: substrate inhibition; 10 mM Mg-ATP; 100 mM Tris/HCl pH 7.5; 25 °C
purified protein [7] = substrate: Nc1ncnc2c1ncn2[C@@H]1O[C@H](COP(=O)(O)OP(=O)(O)OP(=O)(O)O)[C@@H](O)[C@H]1O; assay: purified protein; format: biochemical, Lactococcus lactis; settings: 1 mM NMN, 100 mM Tris/HCl pH 7.5, 25 °C, Mg-ATP, Hill coefficient 2.2 ± 0.3
purified protein [8] = substrate: NC(=O)c1ccc[n+]([C@@H]2O[C@H](CO)[C@@H](O)[C@H]2O)c1; assay: purified protein; format: biochemical, Lactococcus lactis; settings: 10 mM Mg-ATP, 100 mM Tris/HCl pH 7.5, 25 °C, substrate-inhibition model
purified protein [9] = substrate: NC(=O)c1ccc[n+]([C@@H]2O[C@H](COP(=O)([O-])O)[C@@H](O)[C@H]2O)c1; assay: purified protein; format: biochemical, Lactococcus lactis; settings: 10 mM Mg-ATP, 100 mM Tris/HCl pH 7.5, 25 °C, substrate-inhibition model

Molecule: Nc1ncnc2c1ncn2[C@@H]1O[C@H](COP(=O)(O)OP(=O)(O)NP(=O)(O)O)[C@@H](O)[C@H]1O [AMP-PNP]
Kd (NadRLl [3]): 13 ± 1 µM
X-ray crystal structure, 3.00 Å (NadRLl [4]; mixture with NAD at site between the two domains): we observed a mixture of NAD and AMP-PNP bound at this location

Molecule: NC(=O)c1ccc[n+]([C@@H]2O[C@H](COP(=O)(O)OP(=O)(O)OC[C@H]3O[C@@H](n4cnc5c(N)ncnc54)[C@H](O)[C@@H]3O)[C@@H](O)[C@H]2O)c1 [NAD]
X-ray crystal structure, 3.00 Å (NadRLl [4]; mixture with AMP-PNP at site between the two domains): we observed a mixture of NAD and AMP-PNP bound at this location

B1: NadRLl (Lactococcus lactis subsp. lactis Il1403) (protein)
chain: MLTNNISKSKLSGKNIGIYFGTFAPLHTGHQQQIYKCASLNDGVLLVVSGYDNDRGAQIGLPLEKRFRYLREAFNDEENIKVSMLNENDLPEMPNGWDEWANRLFELIHHNTLERDLSVTFYVGELEYAAELKKRFPADGNQYAVEIADRHDISLSATQIRENPQEHWTHINRVFRRHFSKIVTVMGSASTGKSTLVRRLARSINAPFSEEYAREYEEAFNIDDDELKMDDYARMITGQYDANSREVNSPANQGIVFLDTDAIVTRVYAKLYLPREDFEQLEPLFKKTIADERMDLILVIPPITEYIDDGFRHMEWEESRHEFHEELMRQLAEFGLMDKVVILDDEGDHRDQEGYLTRYHHAIDAVHEYTGVKIDRLSY
notes: NMNAT domain residues 8-177, RNK domain residues 178-379
K0.5 (purified protein [7]): 5.2 ± 0.6 mM
Vmax (purified protein [7]): 1.2 µmol/min/mg
Km (purified protein [8]): 0.6 ± 0.1 mM
Vmax (purified protein [8]): 0.4 µmol/min/mg
Km (purified protein [9]): 0.5 ± 0.1 mM
Vmax (purified protein [9]): 1.5 µmol/min/mg

Further lines, with some results ahead:

Ki (NadRLl [1]): 25.4 ± 10.8 mM
Molecule: NC(=O)c1ccc[n+]([C@@H]2O[C@H](COP(=O)([O-])O)[C@@H](O)[C@H]2O)c1 [nicotinamide mononucleotide]
X-ray crystal structure, 2.70 Å (NadRLl [2]): we obtained structures in the presence of NMN and NR, which both have bound substrates

Kd (NadRLl [3]): 63 ± 1 µM
Molecule: Nc1ncnc2c1ncn2[C@@H]1O[C@H](COP(=O)(O)OP(=O)(O)OP(=O)(O)O)[C@@H](O)[C@H]1O [ATP]

Ki (NadRLl [6]): 31.4 ± 8.1 mM
Molecule: NC(=O)c1ccc[n+]([C@@H]2O[C@H](CO)[C@@H](O)[C@H]2O)c1 [nicotinamide riboside]
X-ray crystal structure, 2.30 Å (NadRLl [5]): we obtained structures in the presence of NMN and NR, which both have bound substrates
